Patent publication US20250057819A1, “DRUG COMBINATIONS FOR INHIBITING CORONAVIRUS REPLICATION” (priority 2021, published 2025)
Structures can show the parent of a compound that is named as a salt. Where two headings read alike, the source gives them in different places.

What was measured:
rHCoVs-OC43 = test: microbe, parasite or virus in culture; format: cell-based
[1] = Cell viability assay (MTT) in HRT-18 cells; conditions: human, CC50 (μM)
HRT-18 cells = test: Cell viability assay (MTT) in HRT-18 cells
[2] = Cell viability assay (MTT) in Huh7.5 cells; format: cell-based, human; conditions: human, Huh7.5 cells, Huh7.5 (B), read-out: SARS-CoV-2 CC50
Method: (§1) Cell viability was monitored by a mitochondrial activity test using methyl-thiazolyl-tetrazolium (MTT, Sigma). After 48 hours of drug treatment, cells were treated with 1 mg/ml of MTT during 3 hours at 37° C. The supernatants were removed and the MTT crystals were dissolved using DMSO and a shaker. The absorbance was read with a Tecan Spark at 570 nm with reference at 650 nm.
(§2) Only the most promising molecules or those studied in synergy were tested in Calu3 cells.

SARS-CoV-2 [3] = test: microbe, parasite or virus in culture; format: cell-based; conditions: for EC50: Severe acute respiratory syndrome coronavirus 2, Huh7.5, 48 h, read-out: SARS-CoV-2 EC50
SARS-CoV-2 [4] = test: Drug tests in SARS-CoV-2 model, Calu3 cells, viral titration by plaque assay in Vero E6; conditions: read-out: SARS-CoV-2 EC50; Calu3 (C), MOI 0.05, 48 h treatment
[5] = Cell viability assay (MTT) in Calu3 cells; format: cell-based, Human; conditions: human, Calu3 cells, Calu3 (C), read-out: SARS-CoV-2 CC50
Method: as §1, §2

[6] = 48 h, drug 2 alone (fast synergy screening table), read-out: IC50
[7] = drug 2 alone (fast synergy screening table), read-out: IC50
[8] = drug alone, HRT-18 cells, MOI 0.025, 48 h treatment, decrease of Rluc, read-out: EC50
[9] = drug 2 alone (fast synergy screening table)
[10] = drug alone, HRT-18 cells, 48 h treatment, MTT

Compound	IC50 (rHCoVs-OC43; [6]) [µM]	EC50 (rHCoVs-OC43; [8]) [µM]	CC50 at 48 h [1, 9] [µM]	CC50 at 48 h [1, 10] [µM]	further results
C=C1/C(=C\C=C2/CCC[C@]3(C)[C@@H]([C@H](C)CCCC(C)C)CC[C@@H]23)C[C@@H](O)C[C@@H]1O [Alfacalcidol]	1.7	1.7	> 10	> 10	IC50 (rHCoVs-OC43; [7]): 1.7 µM
CCOC(=O)C1=C(COCCN)NC(C)=C(C(=O)OC)C1c1ccccc1Cl (centres unmarked) [Amlodipine benzenesulphonate]	5.2	5.2	> 10	> 10	IC50 (rHCoVs-OC43; [7]): 5.2 µM
CCN(CC)Cc1cc(Nc2ccnc3cc(Cl)ccc23)ccc1O [Amodiaquine]	1.2	1.2	> 10	> 10	IC50 (rHCoVs-OC43; [7]): 1.2 µM
CCN(CC)CCCC(C)Nc1ccnc2cc(Cl)ccc12 (centres unmarked) [Chloroquine]	0.066	0.066	–	–	–
CN(C)CC/C=C1/c2ccccc2Sc2ccc(Cl)cc21 [Chlorprothixene]	–	7.5	–	> 10	–
CCCC(=O)O[C@]1(C(=O)CCl)[C@H](C)C[C@@H]2[C@@H]3CCC4=CC(=O)C=C[C@]4(C)[C@]3(F)C(=O)C[C@@]21C [Clobetasone butyrate]	–	8.5	–	–	CC50 (HRT-18 cells; [10]): > 10 µM
CC(C)/N=c1\cc2n(-c3ccc(Cl)cc3)c3ccccc3nc-2cc1Nc1ccc(Cl)cc1 [Clofazimine]	1.8	1.8	> 10	> 10	IC50 (rHCoVs-OC43; [7]): 1.8 µM
CCN(CC)CCOc1ccc(C(=C(Cl)c2ccccc2)c2ccccc2)cc1 [Clomiphene citrate]	–	–	> 10	> 10	–
CN(C)CCCN1c2ccccc2CCc2ccc(Cl)cc21 [Clomipramine hydrochloride]	–	–	–	> 10	–
C#C[C@]1(O)CC[C@H]2[C@@H]3CCC4=Cc5oncc5C[C@]4(C)[C@H]3CC[C@@]21C [Danazol]	1	1	> 10	> 10	CC50 at 48 h [2]: > 10 µM; EC50 (SARS-CoV-2 [3]): 0.83 µM; IC50 (rHCoVs-OC43; [7]): 1 µM
CN(C)[C@@H](CCOc1cccc2ccccc12)c1ccccc1 [Dapoxetine hydrochloride]	–	4.7	–	> 10	–
C[C@H]1O[C@@H](O[C@H]2[C@@H](O)C[C@H](O[C@H]3[C@@H](O)C[C@H](O[C@H]4CC[C@@]5(C)[C@H](CC[C@@H]6[C@@H]5CC[C@]5(C)[C@@H](C7=CC(=O)OC7)CC[C@]65O)C4)O[C@@H]3C)O[C@@H]2C)C[C@H](O)[C@@H]1O [Digitoxin]	0.021	0.021	0.08	0.08	–
C[C@H]1O[C@@H](O[C@H]2[C@@H](O)C[C@H](O[C@H]3[C@@H](O)C[C@H](O[C@H]4CC[C@@]5(C)[C@H](CC[C@@H]6[C@@H]5C[C@@H](O)[C@]5(C)[C@@H](C7=CC(=O)OC7)CC[C@]65O)C4)O[C@@H]3C)O[C@@H]2C)C[C@H](O)[C@@H]1O [Digoxin]	–	0.028	–	–	IC50 (rHCoVs-OC43; 48 h): 0.028 µM
OCCN(CCO)c1nc(N2CCCCC2)c2nc(N(CCO)CCO)nc(N3CCCCC3)c2n1 [Dipyridamole]	–	4.1	–	> 10	–
CCN(CC)C(=S)SSC(=S)N(CC)CC [Disulfiram]	–	0.18	–	0.23	–
COc1cc2nc(N3CCN(C(=O)C4COc5ccccc5O4)CC3)nc(N)c2cc1OC (centres unmarked) [Doxazosin mesylate]	–	3.2	–	> 10	–
CNCC[C@H](Oc1cccc2ccccc12)c1cccs1 [Duloxetine hydrochloride]	–	–	–	> 10	EC50 (rHCoVs-OC43; HRT-18, 48 h): 4.8 µM
Cn1cc(C2=C(c3cn(C4CCN(Cc5ccccn5)CC4)c4ccccc34)C(=O)NC2=O)c2ccccc21 [Enzastaurin hydrochloride]	–	2.8	–	> 10	–
CCCCCCCCc1ccc(CCC(N)(CO)CO)cc1 [Fingolimod hydrochloride]	3.9	3.9	> 10	10	IC50 (rHCoVs-OC43; [7]): 3.9 µM
CCCCCCCCCC(=O)OC1(c2ccc(Cl)cc2)CCN(CCCC(=O)c2ccc(F)cc2)CC1 [Haloperidol decanoate]	–	> 10	–	> 10	–
Oc1c(Cl)cc(Cl)c(Cl)c1Cc1c(O)c(Cl)cc(Cl)c1Cl [Hexachlorophene]	0.39	0.39	–	–	–
COC(=O)C1=C(C)NC(C)=C(C(=O)OCCN2CCN(C(c3ccccc3)c3ccccc3)CC2)C1c1cccc([N+](=O)[O-])c1 (centres unmarked) [Manidipine dihydrochloride]	4.5	4.5	> 10	> 10	IC50 (rHCoVs-OC43; [7]): 4.5 µM

Compound	IC50 (rHCoVs-OC43; [6]) [µM]	EC50 (rHCoVs-OC43; [8]) [µM]	CC50 at 48 h [1, 9] [µM]	CC50 at 48 h [1, 10] [µM]	further results
Cc1c(O)cccc1C(=O)N[C@@H](CSc1ccccc1)[C@H](O)CN1C[C@H]2CCCC[C@H]2C[C@H]1C(=O)NC(C)(C)C [Nelfinavir mesylate]	2.6	2.6	> 10	> 10	EC50 (SARS-CoV-2 [4]): 0.11 µM; CC50 at 48 h [2]: > 10 µM; EC50 (SARS-CoV-2 [3]): 1.7 µM; IC50 (rHCoVs-OC43; [7]): 2.6 µM; CC50 at 48 h [5]: > 10 µM
COC(=O)C1=C(C)NC(C)=C(C(=O)OCC(C)C)C1c1ccccc1[N+](=O)[O-] (centres unmarked) [Nisoldipine]	–	2.35	–	> 10	–
CC(=O)Oc1ccccc1C(=O)Nc1ncc([N+](=O)[O-])s1 [Nitazoxanide]	1.33	1.33	> 10	> 10	CC50 at 48 h [2]: > 10 µM; EC50 (SARS-CoV-2 [3]): 0.54 µM
CCCCCCCCCCC[C@@H](C[C@@H]1OC(=O)[C@H]1CCCCCC)OC(=O)[C@H](CC(C)C)NC=O [Orlistat]	–	7.3	–	> 10	–
C[C@@H]1O[C@@H](O[C@H]2C[C@@H](O)[C@]3(CO)[C@H]4[C@H](O)C[C@]5(C)[C@@H](C6=CC(=O)OC6)CC[C@]5(O)[C@@H]4CC[C@]3(O)C2)[C@H](O)[C@H](O)[C@H]1O [Ouabain]	0.016	0.016	0.028	0.028	–
CC(C)COc1ccc(CNC(=O)N(Cc2ccc(F)cc2)C2CCN(C)CC2)cc1 [Pimanavserin]	–	6	–	–	CC50 (HRT-18 cells; [10]): > 10 µM
O=C(Nc1ccc(Oc2ccc(Cl)cc2)c(Cl)c1)c1cc(I)cc(I)c1O [Rafoxanide]	–	6.9	–	> 10	–
NC(=O)c1ncn([C@@H]2O[C@H](CO)[C@@H](O)[C@H]2O)n1 [Ribavirin]	–	1	> 10	> 10	IC50 (rHCoVs-OC43): 1 µM; IC50 (rHCoVs-OC43; 48 h): 1 µM
Cc1cc(/C=C/C#N)cc(C)c1Nc1ccnc(Nc2ccc(C#N)cc2)n1 [Rilpivirine]	–	> 10	–	10	–
Cc1nc2n(c(=O)c1CCN1CCC(c3noc4cc(F)ccc34)CC1)CCCC2 [Risperidone]	–	–	–	> 10	–
CN[C@H]1CC[C@@H](c2ccc(Cl)c(Cl)c2)c2ccccc21 [Sertraline hydrochloride]	–	–	> 10	> 10	–
C=CC[C@@H]1/C=C(\C)C[C@H](C)C[C@H](OC)[C@H]2O[C@@](O)(C(=O)C(=O)N3CCCC[C@H]3C(=O)O[C@H](/C(C)=C/[C@@H]3CC[C@@H](O)[C@H](OC)C3)[C@H](C)[C@@H](O)CC1=O)[C@H](C)C[C@@H]2OC [Tacrolimus hydrate]	–	3.3	–	> 10	–
CC/C(=C(\c1ccccc1)c1ccc(OCCN(C)C)cc1)c1ccccc1 [Tamoxifen]	–	–	–	> 10	–
CSc1ccc2c(c1)N(CCC1CCCCN1C)c1ccccc1S2 (centres unmarked) [Thioridazine hydrochloride]	–	–	> 10	> 10	–
Clc1ccc(C(Cn2ccnc2)OCc2ccsc2Cl)c(Cl)c1 (centres unmarked) [Tioconazole]	–	–	–	> 10	EC50 (rHCoVs-OC43; HRT-18, 48 h): 4.1 µM
CN(C)CCOc1ccc(/C(=C(/CCCl)c2ccccc2)c2ccccc2)cc1 [Toremifene Citrate]	–	2.6	> 10	> 10	IC50 (rHCoVs-OC43; 48 h): 2.6 µM
CN1CCN(CCCN2c3ccccc3Sc3ccc(C(F)(F)F)cc32)CC1 [Trifluoperazine dihydrochloride]	2.9	2.9	> 10	> 10	CC50 at 48 h [2]: > 10 µM; EC50 (SARS-CoV-2 [3]): > 10 µM; inhibitory effect on viral replication (SARS-CoV-2 [3]; drug alone, SARS-CoV-2, words): did not show any significant inhibition of viral replication; IC50 (rHCoVs-OC43; [7]): 2.9 µM
Cc1ccc(Sc2ccccc2N2CCNCC2)c(C)c1 [Vortioxetine hydrobromide]	–	2.4	–	> 10	–
Cc1ccc(Sc2ccccc2N2CCNCC2)c(C)c1 [Vortioxetine]	2.4	–	> 10	–	IC50 (rHCoVs-OC43; [7]): 2.4 µM
CN(C)CCCN1c2ccccc2Sc2ccc(Cl)cc21 [chlorpromazine]	–	5.1	–	> 10	–
Benproperine phosphate	–	5.6	–	–	CC50 (HRT-18 cells; [10]): > 10 µM
Monesin sodium sulfate	–	0.029	–	–	IC50 (rHCoVs-OC43; [7]): 0.029 µM; CC50 (HRT-18 cells; [9]): 0.9 µM; CC50 (HRT-18 cells; [10]): 0.9 µM
